Assay results reported in US20250032598A1, “Compounds, Pharmaceuticals, Formulations, and Methods for Treating and Preventing RNA Virus Infections and Associated Diseases” (ASAVI LLC, priority 2023, published 2025).
Like-named read-outs stand apart in the source and are kept apart here.

Columns and labels:
[1] = system: SARS-CoV-2; format: in vivo, Syrian hamsters
[2] = system: influenza; settings: cited from earlier work
[3] = female Syrian hamsters, lung homogenates 96 hours after infection, 50,000 KIU/kg intravenously 2 times a day for 4 days, Lip-APR = composition 2
[4] = male Syrian hamsters, lung homogenates 96 hours after infection, 50,000 KIU/kg intravenously 2 times a day for 4 days, Lip-APR = composition 2
[5] = male and female Syrian hamsters pooled, lung homogenates, 10,000 KIU/ml, 50,000 KIU/kg intravenously

With aprotinin the “Infectious titer lg (TCID50/mL) ± SD” value [1, 3] was 4.38±0.85 lg (TCID50/mL), the “Viral load Ct ± SD” value [1, 3] was 17.51±1.04 Ct and the “Anti-SARS-CoV-2/COVID-19 efficacy (in words)” value ([1]; intravenous, 50,000 KIU/kg, versus untreated control) was “no antiviral activity”. For the same substance, the “Infectious titer lg (TCID50/mL) ± SD” value [1, 4] was 3.88±0.48 lg (TCID50/mL), the “Viral load Ct ± SD” value [1, 4] was 17.51±1.28 Ct and the “Infectious titer lg (TCID50/mL) ± SD” value [1, 5] was 4.13±0.69 lg (TCID50/mL). For the same substance, the “Viral load Ct ± SD” value [1, 5] was 17.72±1.10 Ct, the “Reduction in viral load compared with patients treated with Ingavirin” value ([2]; APR aerosol, patients) was “approximately 10 fold” and the “Side effects and discomfort” value ([2]; patients of the APR group) was “not identified”. The “Duration of clinical symptoms, shorter than in the Ingavirin group” value ([2]; rhinorrhea, weakness, headache, sore throat, cough, chest pain, fever) was 1 to 2 days.
